Measured values taken from PMC9894920, “Development of an improved and specific inhibitor of NADPH oxidase 2 to treat traumatic brain injury” (Redox Biology, 2023).
Values after ≈ are worked out from the molar mass of the structure shown.

Experiments:
[1] = system: NOX1 reconstituted with p47phox and p67phox; test: NOX1 reconstituted with cytosolic phox proteins (p47phox and p67phox), data not shown; assay type: cell-based
Source text: Another experiment (data not shown) examined the potency of NCATS-SM7270 against NOX1 and NOX3 reconstituted with cytosolic phox proteins (p47phox and p67phox).

NOX3 = target: T1, NOX3 (Homo sapiens, UniProt Q9HBY0); test: Expi293 whole cell assay, NOX3 overexpression; assay type: cell-based; settings: doses 100x higher than GSK2795039
T1 construct: expressed in transfected cells; host or cells: Expi293 (human embryonic kidney) cells, transient transfection
T1 sequence (Q9HBY0 1-568): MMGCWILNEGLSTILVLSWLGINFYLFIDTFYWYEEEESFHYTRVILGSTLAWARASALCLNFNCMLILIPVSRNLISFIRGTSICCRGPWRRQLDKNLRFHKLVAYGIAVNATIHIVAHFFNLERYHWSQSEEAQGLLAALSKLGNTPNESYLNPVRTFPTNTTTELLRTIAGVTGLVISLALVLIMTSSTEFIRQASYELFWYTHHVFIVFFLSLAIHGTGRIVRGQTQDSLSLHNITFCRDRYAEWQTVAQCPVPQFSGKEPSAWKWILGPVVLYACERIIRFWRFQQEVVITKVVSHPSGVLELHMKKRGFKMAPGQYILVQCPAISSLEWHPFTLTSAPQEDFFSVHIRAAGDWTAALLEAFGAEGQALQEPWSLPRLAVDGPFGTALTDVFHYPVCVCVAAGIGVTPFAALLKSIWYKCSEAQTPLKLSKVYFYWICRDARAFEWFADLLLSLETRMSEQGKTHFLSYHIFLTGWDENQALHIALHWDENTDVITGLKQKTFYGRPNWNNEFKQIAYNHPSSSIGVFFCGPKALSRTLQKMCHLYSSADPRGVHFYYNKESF
T1 sequence (P13498 2-195 partner limits assumed): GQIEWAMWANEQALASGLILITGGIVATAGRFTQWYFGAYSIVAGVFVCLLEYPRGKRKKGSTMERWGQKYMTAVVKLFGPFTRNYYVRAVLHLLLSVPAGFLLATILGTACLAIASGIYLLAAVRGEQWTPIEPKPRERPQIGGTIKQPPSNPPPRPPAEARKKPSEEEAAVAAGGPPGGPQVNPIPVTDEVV
Description: (§1) Given concerns about previous assays for specific NOX family members we here report the first use of the Expi293 Expression System (Thermo Scientific) to overexpress NOX1, 2, 3, 4, and 5 in excess of any endogenous NOX proteins present in these cells. Transfections were performed following the manufacturer's instructions using the plasmids for each NOX as described in Supplemental Table 2 except that the enhancer solution provided with the Expi293 system was not used because it promoted enzyme activation.
(§2) After the times indicated in Supplemental Table 2, cells were washed and 50,000 added per well of a white 96-well plate (Greiner) along with 50 μM Luminol and 2.5 U horseradish peroxidase/mL in a volume of 90 μl for NOX1, NOX2, and NOX5. Inhibitors or vehicle controls were added and cells were incubated for 20 min at 37 °C prior to activation with the indicated stimuli. For NOX3 and NOX4 (constitutively active), cells were incubated with inhibitor or vehicle control prior to the addition of luminol and HRP. Chemiluminescence was measured every 2 min for 1 s per well at 37 °C in a Varioscan Multimode reader. AUC data were analyzed using GraphPad Prism using non-linear regression analysis after expressing relative to control alone (maximum ROS production).

[2] = Parallel artificial membrane permeability assay (PAMPA); assay type: in vitro ADME; settings: pH 7.4, PAMPA, pH7.4, read-out: Permeability(pH7.4) (PAMPA_Pion_Lipid 1e-6 cm/s)
Description: (§3) The rat liver microsomal stability, parallel artificial membrane permeability assay (PAMPA), and aqueous kinetic solubility assay in phosphate-buffered saline (PBS) buffer were performed as described in the indicated references.

NOX2 = target: T2, NOX2 (Homo sapiens, UniProt P04839); test: Expi293 whole cell assay, NOX2 overexpression; assay type: cell-based; settings: Expi293 cells expressing NOX2
T2 sequence (P04839 2-570 limits assumed): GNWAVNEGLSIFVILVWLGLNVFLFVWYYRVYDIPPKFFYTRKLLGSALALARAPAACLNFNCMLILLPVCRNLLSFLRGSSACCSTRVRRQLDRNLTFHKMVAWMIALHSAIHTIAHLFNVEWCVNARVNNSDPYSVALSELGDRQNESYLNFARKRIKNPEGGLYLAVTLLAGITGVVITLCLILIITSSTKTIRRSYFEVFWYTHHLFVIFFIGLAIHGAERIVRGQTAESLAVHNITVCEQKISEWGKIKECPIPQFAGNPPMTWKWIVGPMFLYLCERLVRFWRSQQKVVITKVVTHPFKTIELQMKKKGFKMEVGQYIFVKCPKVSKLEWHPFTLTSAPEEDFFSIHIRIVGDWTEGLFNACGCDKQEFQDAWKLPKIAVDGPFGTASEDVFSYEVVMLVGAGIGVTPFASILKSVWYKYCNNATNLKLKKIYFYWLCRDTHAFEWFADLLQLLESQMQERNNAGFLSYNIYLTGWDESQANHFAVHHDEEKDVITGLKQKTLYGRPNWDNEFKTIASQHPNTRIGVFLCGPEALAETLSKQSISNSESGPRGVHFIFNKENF
T2 sequence (P13498 2-195 partner limits assumed): T1 sequence (P13498 2-195 partner limits assumed)
Description: Given concerns about previous assays for specific NOX family members [45] we here report the first use of the Expi293 Expression System (Thermo Scientific) to overexpress NOX1, 2, 3, 4, and 5 in excess of any endogenous NOX proteins present in these cells. Transfections were performed following the manufacturer's instructions using the plasmids for each NOX as described in Supplemental Table 2 except that the enhancer solution provided with the Expi293 system was not used because it promoted enzyme activation.
After the times indicated in Supplemental Table 2, cells were washed and 50,000 added per well of a white 96-well plate (Greiner) along with 50 μM Luminol and 2.5 U horseradish peroxidase/mL in a volume of 90 μl for NOX1, NOX2, and NOX5. Inhibitors or vehicle controls were added and cells were incubated for 20 min at 37 °C prior to activation with the indicated stimuli. […] Chemiluminescence was measured every 2 min for 1 s per well at 37 °C in a Varioscan Multimode reader. AUC data were analyzed using GraphPad Prism using non-linear regression analysis after expressing relative to control alone (maximum ROS production).

[3] = Aqueous kinetic solubility in PBS buffer; assay type: physicochemical; settings: aqueous buffer, kinetic from dmso stock, read-out: Solubility
Description: as §3

NOX5 = target: T3, NOX5 (Homo sapiens, UniProt Q96PH1); test: Expi293 whole cell assay, NOX5 overexpression; assay type: cell-based; settings: highest dose about 100x the IC50 versus NOX2
T3 sequence (Q96PH1 1-719 isoform Q96PH1-4): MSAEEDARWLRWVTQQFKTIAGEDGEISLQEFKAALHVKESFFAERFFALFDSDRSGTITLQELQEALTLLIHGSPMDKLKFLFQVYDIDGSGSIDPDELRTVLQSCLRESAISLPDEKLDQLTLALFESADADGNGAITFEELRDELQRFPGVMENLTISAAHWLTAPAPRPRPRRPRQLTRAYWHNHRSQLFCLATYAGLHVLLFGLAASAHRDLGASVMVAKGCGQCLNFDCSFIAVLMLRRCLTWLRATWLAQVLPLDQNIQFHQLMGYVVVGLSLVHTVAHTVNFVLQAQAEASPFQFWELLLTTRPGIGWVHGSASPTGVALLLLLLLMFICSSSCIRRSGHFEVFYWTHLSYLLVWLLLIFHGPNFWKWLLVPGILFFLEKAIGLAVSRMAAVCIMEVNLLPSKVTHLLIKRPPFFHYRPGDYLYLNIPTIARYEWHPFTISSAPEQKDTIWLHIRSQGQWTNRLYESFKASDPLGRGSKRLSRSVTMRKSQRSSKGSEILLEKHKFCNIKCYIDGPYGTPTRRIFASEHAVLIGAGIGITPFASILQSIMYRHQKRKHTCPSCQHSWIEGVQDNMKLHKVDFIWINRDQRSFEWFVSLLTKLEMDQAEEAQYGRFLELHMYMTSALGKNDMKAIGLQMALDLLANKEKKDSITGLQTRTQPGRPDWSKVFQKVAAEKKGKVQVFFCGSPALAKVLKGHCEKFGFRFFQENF
Description: as §1, §2

SMILES: Cn1ccc(S(=O)(=O)Nc2ccnc3c2c(-c2ccc4ccn(C)c4c2)cn3C2CC2)n1 [NCATS-SM7270, N-(1-cyclopropyl-3-(1-methyl-1H-indol-6-yl)-1H-pyrrolo [2,3-b]pyridin-4-yl)-1-methyl-1H-pyrazole-3-sulfonamide]
- dose needed to observe inhibition of NOX1 versus NOX2 [1]: ~10 fold
- activity against NOX3 (NOX3): no detectable activity
- Papp [2]: 999 ×10⁻⁶ cm/s
- improvement in potency toward NOX2 compared with GSK2795039 (NOX2): 2 fold
- solubility [3]: 19.6 µg/mL (≈ 43.9 µM)
- activity against NOX5 (NOX5): only marginal activity at the highest dose tested
